Like-named read-outs stand apart in the source and are kept apart here.
Assays:
[1] = test system: colorectal carcinoma Caco-2; assay: WST-1 cell proliferation assay, Caco-2; format: cell-based; conditions: Homo sapiens; Caco-2, WST-1, 72 h; read-out: Anticancer Activity IC50 Caco-2
Procedure: (§1) The antiproliferative activity of all 20 new 10-substituted 1,2,3-triazole derivatives of dipyridothiazines was tested in vitro against cancer cell lines: glioblastoma SNB-19, colorectal carcinoma Caco-2, lung cancer A549, and breast cancer MDA-MB231 using the WST-1 assay. Normal human fibroblasts NHDF were used as a control.
(§2) All dipyridothiazines with 1,2,3-triazole substituents (1–4)b–f were evaluated for their anticancer activity using four cultured cell lines: SNB-19 (human glioblastoma, DSMZ—German Collection of Microorganisms and Cell Cultures, Braunschweig, Germany), Caco-2 (human colon adenocarcinoma, DSMZ—German Collection of Microorganisms and Cell Cultures, Braunschweig, Germany), A549 (human lung carcinoma, ATCC, Manassas, VA, USA) and MDA-MB231 (human breast adenocarcinoma, ATCC, Manassas, VA, USA), and NHDF (human dermal fibroblast cell line, ATCC, Manassas, VA, USA. The cultured cells were kept at 37 °C and 5% CO2. The cells were seeded (1 × 10^4 cells/well/100 µL DMEM supplemented with 10% FCS and streptomycin and penicillin) using 96-well plates (Corning). The cells were counted in a hemocytometer (Burker’s chamber) using a phase contrast Olympus IX50 microscope equipped with Sony SSC-DC58 AP camera and Olympus DP10 digital camera.
(§3) Antiproliferative effect of the obtained compounds on the cancer cells was determined using the cell proliferation reagent WST-1 assay (Roche Diagnostics, Mannheim, Germany). This assay is based on the viable cell’s ability to cleave the bright red-colored tetrazolium salt (2-(4-iodophenyl)-3-(4-nitrophenyl)-5-(2,4-disulfophenyl)-2H-tetrazolium, monosodium salt) to dark red soluble formazan by cellular enzymes. An increase in the amount of formazan dye formed correlates to the number of metabolically active cells in the culture. The formazan dye produced by metabolically active cells is quantified by a scanning ELISA reader by measuring the absorbance of the dye solution at appropriate wavelengths. The examined cells were exposed to the tested compounds for 72 h at various concentrations between 0.1 μg/mL and 100 μg/mL (prepared initially at concentration of 1 mg/mL in DMSO). The cells were incubated with WST-1 (10 μL) for 1 h and the absorbance of the samples against a background control was measured at 450 nm using a microplate reader with a reference wavelength at 600 nm. The results are expressed as means of at least two independent experiments performed in triplicate.

[2] = test system: breast cancer MDA-MB231; assay: WST-1 cell proliferation assay, MDA-MB231; format: cell-based, human; conditions: MDA-MB231, WST-1, 72 h, read-out: Anticancer Activity IC50 MDA-MB231
Procedure: as §1, with “Encouraged by our previous promising results in the field of antiproliferative activity of dipyridothiazines as well as by the good anticancer activity of the 1,2,3-triazoles, we decided to combine the biological potentials of dipyridothiazines and triazole moieties, hoping to obtain compounds with better activity. The” for “The”
as §2, §3

[3] = test system: lung cancer A549; assay: WST-1 cell proliferation assay, A549; format: cell-based, human; conditions: A549, WST-1, 72 h, read-out: Anticancer Activity IC50 A549
Procedure: as §1, with “Encouraged by our previous promising results in the field of antiproliferative activity of dipyridothiazines as well as by the good anticancer activity of the 1,2,3-triazoles, we decided to combine the biological potentials of dipyridothiazines and triazole moieties, hoping to obtain compounds with better activity. The” for “The”
as §2, §3

[4] = test system: glioblastoma SNB-19; assay: WST-1 cell proliferation assay, SNB-19; format: cell-based, human; conditions: SNB-19, WST-1, 72 h, read-out: Anticancer Activity IC50 SNB-19
Procedure: as §1, with “Encouraged by our previous promising results in the field of antiproliferative activity of dipyridothiazines as well as by the good anticancer activity of the 1,2,3-triazoles, we decided to combine the biological potentials of dipyridothiazines and triazole moieties, hoping to obtain compounds with better activity. The” for “The”
as §2, §3

[5] = test system: normal human fibroblasts NHDF; assay: WST-1 cytotoxicity assay, normal fibroblasts NHDF; format: cell-based; conditions: normal human fibroblasts NHDF, WST-1, 72 h
Procedure: as §1, with “Encouraged by our previous promising results in the field of antiproliferative activity of dipyridothiazines as well as by the good anticancer activity of the 1,2,3-triazoles, we decided to combine the biological potentials of dipyridothiazines and triazole moieties, hoping to obtain compounds with better activity. The” for “The”
as §2, §3

[6] = test system: SNB-19, Caco-2, A549 and MDA-MB231 cancer cell lines; assay: WST-1 assay, summary over the cancer cell line panel; format: cell-based, human; conditions: for IC50: Homo sapiens
Procedure: as §1, §2, §3

[7] = span over SNB-19, Caco-2, A549, MDA-MB231, read-out: IC50 across all investigated cancer cell lines

Row | Compound | IC50 [1] | IC50 ([2]; Homo sapiens, MDA-MB-231) | IC50 ([3]; Homo sapiens) | IC50 ([4]; Homo sapiens) | IC50 [5] | IC50 ([6]; span over SNB-19 and MDA-MB231, read-out: IC50 in relation to SNB-19 and MDA-MB231 cell lines) | IC50 [6, 7] | selectivity among cancer cell lines (in words) ([6]; four cancer cell lines) | IC50 [2] | IC50 [3] | IC50 [4]
1 | c1ccc(Cn2cc(CN3c4cccnc4Sc4cccnc43)nn2)cc1 [1b, 10-[(1-Benzyl-1H-1,2,3-triazol-4-yl)-methyl]-1,6-diazaphenothiazine] | 19.9 ± 2.71 µM | 13.7 µM | > 100 µM | 69.2 µM | > 100 µM | – | – | – | – | – | –
2 | Fc1ccc(Cn2cc(CN3c4cccnc4Sc4cccnc43)nn2)cc1 [1c, 10-[(1-(4-Fluorobenzyl)-1H-1,2,3-triazol-4-yl)methyl]-1,6-diazaphenothiazine] | 8.1 µM | 7.82 µM | 29.1 µM | 5.72 µM | > 100 µM | 5.72 to 7.82 µM | – | – | – | – | –
3 | N#Cc1ccc(Cn2cc(CN3c4cccnc4Sc4cccnc43)nn2)cc1 [1e, 10-[(1-(4-Cyanobenzyl)-1H-1,2,3-triazol-4-yl)methyl]-1,6-diazaphenothiazine] | 79.7 µM | 25.8 µM | 1.79 µM | 9.65 µM | > 100 µM | – | – | – | – | – | –
4 | c1ccc(SCn2cc(CN3c4cccnc4Sc4cccnc43)nn2)cc1 [1f, 10-[(1-Phenylthiomethyl-1H-1,2,3-triazolo-4-ylo)methyl]-1,6-diazaphenothiazine] | > 100 µM | 68.7 µM | > 100 µM | > 100 µM | > 100 µM | – | – | – | – | – | –
5 | c1ccc(Cn2cc(CN3c4cnccc4Sc4cccnc43)nn2)cc1 [2b, 10-[(1-Benzyl-1H-1,2,3-triazol-4-yl)-methyl]-1,8-diazaphenothiazine] | > 100 µM | 56.3 µM | 77.4 µM | 41.9 µM | > 100 µM | – | – | – | – | – | –
6 | Fc1ccc(Cn2cc(CN3c4cnccc4Sc4cccnc43)nn2)cc1 [2c, 10-[(1-(4-Fluorobenzyl)-1H-1,2,3-triazol-4-yl)methyl]-1,8-diazaphenothiazine] | 43.6 µM | 9.21 µM | 60.2 µM | 55.2 µM | > 100 µM | – | – | – | – | – | –
7 | Clc1ccc(Cn2cc(CN3c4cnccc4Sc4cccnc43)nn2)cc1 [2d, 10-[(1-(4-Chlorobenzyl)-1H-1,2,3-triazol-4-yl)methyl]-1,8-diazaphenothiazine] | 11.4 µM | 4.71 µM | 1.82 µM | 59.9 µM | 43 µM | – | – | – | – | – | –
8 | N#Cc1ccc(Cn2cc(CN3c4cnccc4Sc4cccnc43)nn2)cc1 [2e, 10-[(1-(4-Cyanobenzyl)-1H-1,2,3-triazol-4-yl)methyl]-1,8-diazaphenothiazine] | 34.4 µM | 12 µM | 63.8 µM | 10.6 µM | > 100 µM | – | – | – | – | – | –
9 | c1ccc(SCn2cc(CN3c4cnccc4Sc4cccnc43)nn2)cc1 [2f, 10-[(1-Phenylthiomethyl-1H-1,2,3-triazolo-4-ylo)methyl]-1,8-diazaphenothiazine] | 32.5 µM | 12 µM | 46.8 µM | 56.3 µM | > 100 µM | – | – | – | – | – | –
10 | c1ccc(Cn2cc(CN3c4ccncc4Sc4ccncc43)nn2)cc1 [3b, 10-[(1-Benzyl-1H-1,2,3-triazol-4-yl)-methyl]-2,7-diazaphenothiazine] | 0.26 µM | 0.77 µM | 0.26 µM | 2.04 µM | 22.7 µM | – | 0.26 to 2.07 µM | – | – | – | –
11 | Fc1ccc(Cn2cc(CN3c4ccncc4Sc4ccncc43)nn2)cc1 [3c, 10-[(1-(4-Fluorobenzyl)-1H-1,2,3-triazol-4-yl)methyl]-2,7-diazaphenothiazine] | 29.9 µM | 25.7 µM | 27.2 µM | 57.9 µM | 70.6 µM | – | – | – | – | – | –
12 | Clc1ccc(Cn2cc(CN3c4ccncc4Sc4ccncc43)nn2)cc1 [3d, 10-[(1-(4-Chlorobenzyl)-1H-1,2,3-triazol-4-yl)methyl]-2,7-diazaphenothiazine] | 33.1 µM | 4.26 µM | 17.9 µM | 31.3 µM | > 100 µM | – | – | – | – | – | –
13 | N#Cc1ccc(Cn2cc(CN3c4ccncc4Sc4ccncc43)nn2)cc1 [3e, 10-[(1-(4-Cyanobenzyl)-1H-1,2,3-triazol-4-yl)methyl]-2,7-diazaphenothiazine] | 10 µM | 3.5 µM | 30.1 µM | 26.8 µM | 49.5 µM | – | – | – | – | – | –
14 | c1ccc(SCn2cc(CN3c4ccncc4Sc4ccncc43)nn2)cc1 [3f, 10-[(1-Phenylthiomethyl-1H-1,2,3-triazolo-4-ylo)methyl]-2,7-diazaphenothiazine] | 14.5 µM | 0.64 µM | 0.65 µM | 32.6 µM | 52.9 µM | – | – | acted selectively towards A549 and MDA-MB231 cell lines | – | – | –
15 | c1ccc(Cn2cc(CN3c4ccncc4Sc4ncccc43)nn2)cc1 [4b, 10-[(1-Benzyl-1H-1,2,3-triazol-4-yl)-methyl]-3,6-diazaphenothiazine] | 57.9 µM | 7.87 µM | 60.6 µM | 20.8 µM | > 100 µM | – | – | – | – | – | –
16 | Fc1ccc(Cn2cc(CN3c4ccncc4Sc4ncccc43)nn2)cc1 [4c, 10-[(1-(4-Fluorobenzyl)-1H-1,2,3-triazol-4-yl)methyl]-3,6-diazaphenothiazine] | 0.25 µM | 1.97 µM | 0.25 µM | 6.25 µM | 2.85 µM | – | 0.25 to 6.25 µM | – | – | – | –
17 | Clc1ccc(Cn2cc(CN3c4ccncc4Sc4ncccc43)nn2)cc1 [4d, 10-[(1-(4-Chlorobenzyl)-1H-1,2,3-triazol-4-yl)methyl]-3,6-diazaphenothiazine] | 42.1 µM | 13.4 µM | 54 µM | 14.9 µM | > 100 µM | – | – | – | – | – | –
18 | N#Cc1ccc(Cn2cc(CN3c4ccncc4Sc4ncccc43)nn2)cc1 [4e, 10-[(1-(4-Cyanobenzyl)-1H-1,2,3-triazol-4-yl)methyl]-3,6-diazaphenothiazine] | 74.3 µM | 38.8 µM | 42.7 µM | 53.6 µM | > 100 µM | – | – | – | – | – | –
19 | c1ccc(SCn2cc(CN3c4ccncc4Sc4ncccc43)nn2)cc1 [4f, 10-[(1-Phenylthiomethyl-1H-1,2,3-triazolo-4-ylo)methyl]-3,6-diazaphenothiazine] | 67.5 µM | 44.3 µM | > 100 µM | 44.8 µM | > 100 µM | – | – | – | – | – | –
20 | N.N.[Cl][Pt][Cl] [Cisplatin, reference compound] | – | – | – | – | 63.9 µM | – | – | – | 3.13 µM | 0.6 µM | 3.73 µM
